# Test results from paper PMC7377239, “Cardiovascular Effects of Polychlorinated Biphenyls and Their Major Metabolites” (Environmental Health Perspectives, 2020).
# Counter-ions that a name gives are not always drawn. Like-named read-outs stand apart in the source and are kept apart here.
# Legend:
# [1] = test system: iCell endothelial cells (human iPSC-derived ECs); assay: Tube formation (tubulogenesis) assay in iCell endothelial cells, 18 h; type: cell-based; settings: Homo sapiens, Endothelial cell, 18 hr; for activity at 0.1 µM: 0.10 µM
# In short: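 iCell ECs (passages 1–5) seeded 7,500 cells/well on reduced-growth-factor Geltrex in starvation medium, exposed overnight at 37°C to compounds in triplicate concentration–response (0.5% DMSO vehicle). Calcein AM staining, 4× imaging, angiogenesis image analysis; readouts normalized to vehicle, four-parameter logistic fit, POD at 1 SD of vehicle; 100 μM assigned NOAEL if no response.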
# HUVECs = assay: High-content imaging cytotoxicity in HUVECs, 24 h; type: cell-based, human; settings: Homo sapiens, HUVEC, 24 h; for viability at 0.01 µM / activity at 0.01 µM / viability at 0.1 µM / activity at 0.1 µM / viability at 1 µM / activity at 1 µM / viability at 10 µM / activity at 10 µM / viability at 100 µM / activity at 100 µM: 0.00 µM = 100.00; for viability at 0.1 µM / activity at 0.1 µM: 0.10 µM
# In short: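 HUVECs (passages 1–5) were plated at 750 cells/well without fibronectin, grown to a monolayer (3–5 d) and exposed to compounds for 24 h at 37°C, 5% CO2. Hoechst 33342, MitoTracker Orange and calcein AM staining was imaged at 10×; readouts were normalized to 0.5% DMSO vehicle and fit to a four-parameter logistic model.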
# [2] = iPSC-EC tube formation, 0.00 µM control = 100.00, read-out: endo.mtl.18hr
# [3] = iPSC-EC tube formation, 0.00 µM control = 100.00, read-out: endo.tlps.18hr
# [4] = iPSC-EC tube formation, 0.00 µM control = 100.00, read-out: endo.tta.18hr
# [5] = iPSC-EC tube formation, 0.00 µM control = 100.00, read-out: endo.ttl.18hr
# [6] = HUVECs, 24 hr, read-out: huvec.cyto.24hr
# [7] = HUVECs, 24 hr, read-out: huvec.mito.24hr
# [8] = HUVECs, 24 hr, read-out: huvec.mitoint.24hr
# [9] = HUVECs, 24 hr, read-out: huvec.nma.24hr
# [10] = HUVECs, 24 hrs, read-out: huvec.tc.24hrs
smiles,measurement,setting,value
O=S(=O)(O)Oc1cc(-c2ccccc2)ccc1Cl [3-yl PCB 3 sulfate],activity at 0.01 µM,[1]; [2],102%
same,activity at 0.01 µM,[1]; [3],104%
same,activity at 0.01 µM,[1]; [4],152%
same,activity at 0.01 µM,[1]; [5],139%
same,activity at 0.1 µM,[1]; [2],88.6%
same,activity at 0.1 µM,[1]; [3],127%
same,activity at 0.1 µM,[1]; [4],93.5%
same,activity at 0.1 µM,[1]; [5],88.4%
same,activity at 1 µM,[1]; [2],92.1%
same,activity at 1 µM,[1]; [3],89.4%
same,activity at 1 µM,[1]; [4],106%
same,activity at 1 µM,[1]; [5],101%
same,activity at 10 µM,[1]; [2],75.1%
same,activity at 10 µM,[1]; [3],68.7%
same,activity at 10 µM,[1]; [4],61.4%
same,activity at 10 µM,[1]; [5],59.2%
same,activity at 100 µM,[1]; [2],83.7%
same,activity at 100 µM,[1]; [3],46.7%
same,activity at 100 µM,[1]; [4],78.8%
same,activity at 100 µM,[1]; [5],79%
same,minimal effective concentration,"[1]; iPSC-EC tube formation, top concentration 100.00 µM, read-out: endo.mtl.18hr POD",100 µM
same,minimal effective concentration,"[1]; iPSC-EC tube formation, top concentration 100.00 µM, read-out: endo.tlps.18hr POD",6.75 µM
same,minimal effective concentration,"[1]; iPSC-EC tube formation, top concentration 100.00 µM, read-out: endo.tta.18hr POD",100 µM
same,minimal effective concentration,"[1]; iPSC-EC tube formation, top concentration 100.00 µM, read-out: endo.ttl.18hr POD",100 µM
same,viability at 0.01 µM,HUVECs; [6],78.2%
same,activity at 0.01 µM,HUVECs; [7],77.8%
same,activity at 0.01 µM,HUVECs; [8],93.6%
same,activity at 0.01 µM,HUVECs; [9],96.6%
same,viability at 0.1 µM,HUVECs; [6],95.5%
same,activity at 0.1 µM,HUVECs; [7],95.5%
same,activity at 0.1 µM,HUVECs; [8],110%
same,activity at 0.1 µM,HUVECs; [9],102%
same,viability at 1 µM,HUVECs; [6],95.1%
same,activity at 1 µM,HUVECs; [7],94%
same,activity at 1 µM,HUVECs; [8],93.8%
same,activity at 1 µM,HUVECs; [9],95.5%
same,viability at 10 µM,HUVECs; [6],91.1%
same,activity at 10 µM,HUVECs; [7],89.7%
same,activity at 10 µM,HUVECs; [8],80.7%
same,activity at 10 µM,HUVECs; [9],93.3%
same,viability at 100 µM,HUVECs; [6],98.8%
same,activity at 100 µM,HUVECs; [7],97.9%
same,activity at 100 µM,HUVECs; [8],105%
same,activity at 100 µM,HUVECs; [9],96%
same,minimal effective concentration,"HUVECs; HUVECs, 24 hr, top concentration 100.00 µM, read-out: huvec.cyto.24hr POD",100 µM
same,minimal effective concentration,"HUVECs; HUVECs, 24 hr, top concentration 100.00 µM, read-out: huvec.mito.24hr POD",100 µM
same,minimal effective concentration,"HUVECs; HUVECs, 24 hr, top concentration 100.00 µM, read-out: huvec.mitoint.24hr POD",100 µM
same,minimal effective concentration,"HUVECs; HUVECs, 24 hr, top concentration 100.00 µM, read-out: huvec.nma.24hr POD",100 µM
same,viability at 0.01 µM,HUVECs; [10],78.4%
same,viability at 0.1 µM,HUVECs; [10],95.5%
same,viability at 1 µM,HUVECs; [10],95.1%
same,viability at 10 µM,HUVECs; [10],91.1%
same,viability at 100 µM,HUVECs; [10],98.8%
same,minimal effective concentration,"HUVECs; HUVECs, 24 hrs, top concentration 100.00 µM, read-out: huvec.tc.24hrs POD",100 µM
"COc1ccc(-c2cccc(Cl)c2)cc1Cl [4-OMe-PCB 11, 4-methoxy-3,3′-dichlorobiphenyl]",minimal effective concentration,"[1]; endothelial cells (endo), tube formation mtl, read-out: POD endo.mtl.18hr",100 µM
same,minimal effective concentration,"[1]; endothelial cells (endo), tube formation tlps, read-out: POD endo.tlps.18hr",28.4 µM
same,minimal effective concentration,"[1]; endothelial cells (endo), tube formation tta, read-out: POD endo.tta.18hr",0.00169 µM
same,minimal effective concentration,"[1]; endothelial cells (endo), tube formation ttl, read-out: POD endo.ttl.18hr",0.00197 µM
same,minimal effective concentration,"HUVECs; cyto, 24 hr, read-out: POD huvec.cyto.24hr",7.59 µM
same,minimal effective concentration,"HUVECs; mito, 24 hr, read-out: POD huvec.mito.24hr",6.19 µM
same,minimal effective concentration,"HUVECs; mitoint, 24 hr, read-out: POD huvec.mitoint.24hr",16 µM
same,minimal effective concentration,"HUVECs; nma, 24 hr, read-out: POD huvec.nma.24hr",6.39 µM
same,minimal effective concentration,"HUVECs; tc, 24 hr, read-out: POD huvec.tc.24hr",7.59 µM
